The source of these data is patent publication US6277854A, “Tricyclic antitumor farnesyl protein transferase inhibitors” (Schering Corporation, priority 1999, dated 2001).

The structures appear in SMILES notation. Some results are limits rather than exact numbers.

The assay addresses farnesyl protein transferase. Briefly: In vitro enzyme assay: inhibition of farnesyl protein transferase (FPT), [3H]farnesyl transfer to Ras-CVLS. It counts as biochemical, rat (brain); human (expressed in E. coli). The source says:
1. In vitro enzyme assays: Inhibition of famesyl protein transferase and geranylgeranyl protein transferase.
Farnesyl protein transferase (FPT) was partially purified from rat brain by ammonium sulfate fractionation followed by Q-Sepharose (Pharmacia, Inc.) anion exchange chromatography essentially as described by Yokoyama et al (Yokoyama, K., et al., (1991), A protein geranylgeranyltransferase from bovine brain: Implications for protein prenylation specificity, Proc. Natl. Acad. Sci USA 88: 5302-5306, the disclosure of which is incorporated herein by reference thereto). Human famesyl protein transferase was also expressed in E. coli, using cDNA clones encoding both the a and b subunits. The methods used were similar to those published (Omer, C. et al., (1993), Characterization of recombinant human famesyl protein transferase: Cloning, expression, farnesyl diphosphate binding, and functional homology with yeast prenyl-protein transferases, Biochemistry 32:5167-5176). Human famesyl protein transferase was partially-purified from the soluble protein fraction of E. coli as described above. […] Two forms of val^12 -Ha-Ras protein were prepared as substrates for these enzymes, differing in their carboxy terminal sequence. One form terminated in cysteine-valine-leucine-serine (Ras-CVLS) the other in cystein-valine-leucine-leucine (Ras-CVLL). Ras-CVLS is a substrate for the famesyl protein transferase while Ras-CVLL is a substrate for geranylgeranyl protein transferase I. The cDNAs encoding these proteins were constructed so that the proteins contain an amino-terminal extension of 6 histidine residues. Both proteins were expressed in Escherichia coli and purified using metal chelate affinity chromatography. The radiolabelled isoprenyl pyrophosphate substrates, [^3 H]farnesyl pyrophosphate and [^3 H]geranylgeranyl pyrophosphate, were purchased from DuPon/New England Nuclear.
Several methods for measuring farnesyl protein transferase activity have been described (Reiss et al 1990, Cell 62: 81; Schaber et al 1990, J. Biol. Chem. 265: 14701; Manne et al 1990, PNAS 87: 7541; and Barbacid & Manne 1993, U.S. Pat. No. 5,185,248). […] The reaction was allowed to proceed for 30 minutes at room temperature and then stopped with 0.5 ml of 4% sodium dodecyl sulfate (SDS) followed by 0.5 ml of cold 30% TCA. Samples were allowed to sit on ice for 45 minutes and precipitated Ras protein was then collected on GF/C filter paper mats using a Brandel cell harvester. Filter mats were washed once with 6% TCA, 2% SDS and radioactivity was measured in a Wallac 1204 Betaplate BS liquid scintillation counter. Percent inhibition was calculated relative to the DMSO vehicle control.

Turning to `CN(C)CC(=O)N1CCC(C2c3ncc(Br)cc3CCc3cc(Cl)cc(Cl)c32)CC1` (single isomer, unassigned) [Example 4], the IC50 came to 0.38 µM.
Consider `CN(C)CCC(=O)N1CCC(C2c3ncc(Br)cc3CCc3cc(Cl)cc(Cl)c32)CC1` (single isomer, unassigned) [Example 5], for which the IC50 came out at 0.056 µM.
For `CN(C)CCCCC(=O)N1CCC(C2c3ncc(Br)cc3CCc3cc(Cl)cc(Cl)c32)CC1` (single isomer, unassigned) [Example 7], inhibition was half-maximal at 0.022 µM (IC50).
The compound `CCN(CC)CCC(=O)N1CCC(C2c3ncc(Br)cc3CCc3cc(Cl)cc(Cl)c32)CC1` (single isomer, unassigned) [Example 8] showed an IC50 of 0.014 µM.
`O=C(CCN1CCCCC1)N1CCC(C2c3ncc(Br)cc3CCc3cc(Cl)cc(Cl)c32)CC1` (single isomer, unassigned) [Example 9]: the IC50 was determined as 0.006 µM.
The compound `O=C(CN1CCCC1=O)N1CCC(C2c3ncc(Br)cc3CCc3cc(Cl)cc(Cl)c32)CC1` (single isomer, unassigned) [Example 10] returned an IC50 of 0.019 µM.
`O=C(CCN1C(=O)CCC1=O)N1CCC(C2c3ncc(Br)cc3CCc3cc(Cl)cc(Cl)c32)CC1` (single isomer, unassigned) [Example 11]: the IC50 turned out to be 0.076 µM.
Same read-out and setting: the value for `NC(=O)CCC(=O)N1CCC(C2c3ncc(Br)cc3CCc3cc(Cl)cc(Cl)c32)CC1` (single isomer, unassigned) [Example 12] was 0.061 µM; that for `CN(C)C(=O)CCC(=O)N1CCC(C2c3ncc(Br)cc3CCc3cc(Cl)cc(Cl)c32)CC1` (single isomer, unassigned) [Example 13] was 0.015 µM; that for `O=C(CCC(=O)N1CCC(C2c3ncc(Br)cc3CCc3cc(Cl)cc(Cl)c32)CC1)N1CCCC1` (single isomer, unassigned) [Example 14] was 0.016 µM.
Still for that read-out and setting: as for `CC(=O)NCCCC(=O)N1CCC(C2c3ncc(Br)cc3CCc3cc(Cl)cc(Cl)c32)CC1` (single isomer, unassigned) [Example 15], the figure is 0.063 µM.
On the same count and under the same terms, the value for `O=C(NCCCC(=O)N1CCC(C2c3ncc(Br)cc3CCc3cc(Cl)cc(Cl)c32)CC1)Nc1ccccc1` (single isomer, unassigned) [Example 16] was above 0.1 µM.
With `O=C(NCCCC(=O)N1CCC(C2c3ncc(Br)cc3CCc3cc(Cl)cc(Cl)c32)CC1)c1cccnc1` (single isomer, unassigned) [Example 18], the FPT inhibition (@ 93 nM) came out at 9%.
Regarding `O=C(CCCC(=O)N1CCC(C2c3ncc(Br)cc3CCc3cc(Cl)cc(Cl)c32)CC1)Nc1ccccc1` (single isomer, unassigned) [Example 19], the FPT inhibition (@ 0.06 μg/μL) is given as 21%.
Where the note is “@ 92 nM”, `O=C(CCCC(=O)N1CCC(C2c3ncc(Br)cc3CCc3cc(Cl)cc(Cl)c32)CC1)Nc1ccc(Cl)cc1` (single isomer, unassigned) [Example 20] came in with an FPT inhibition of 0%.
For `O=C(CCCC(=O)N1CCC(C2c3ncc(Br)cc3CCc3cc(Cl)cc(Cl)c32)CC1)NCc1ccccc1` (single isomer, unassigned) [Example 21], where the note is “@ 0.06 μg/μL”, the FPT inhibition is listed as 35%.
As for `O=C(CCCCCN1C(=O)C=CC1=O)N1CCC(C2c3ncc(Br)cc3CCc3cc(Cl)cc(Cl)c32)CC1` (single isomer, unassigned) [Example 23], 0.62 µM corresponded to half-maximal inhibition (IC50).
Compound `O=C(NCCCC(=O)N1CCC(C2c3ncc(Br)cc3CCc3cc(Cl)cc(Cl)c32)CC1)c1ccncc1` (single isomer, unassigned) [Example 24] had an FPT inhibition (@ 0.06 μg/μL) of 20%.
In the case of `NC(=O)N1CCC(C2c3ncc(Br)cc3CCc3cc(Cl)cc(Cl)c32)CC1` (single isomer, unassigned; (+)) [Example 1, (+)-4-(3-BROMO-8,10-DICHLORO-6,11-DIHYDRO-5H-BENZO[5,6]-CYCLOHEPTA[1 ,2-b]PYRIDIN-11-YL)-1-PIPERIDINE CARBOXAMIDE], the IC50 was 0.39 µM.
For the compound `CN(C)CCCC(=O)N1CCC(C2c3ncc(Br)cc3CCc3cc(Cl)cc(Br)c32)CC1` (single isomer, unassigned; (+)) [Example 2, (+)-4-(3,10-DIBROMO-8-CHLORO-6,11-DIHYDRO-5H-BENZO[5,6]-CYCLO-HEPTA[1,2-b]PYRIDIN-11-YL)-1-[4-(DIMETHYLAMINO)-1-OXOBUTYL]PIPERIDINE], half-maximal inhibition (IC50) required 0.004 µM.
`NCC(=O)N1CCC(C2c3ncc(Br)cc3CCc3cc(Cl)cc(Cl)c32)CC1` (single isomer, unassigned; (+)) [Example 3, (+)-1-(AMINOACETYL)-4-(3-BROMO-8,10-DICHLORO-6,11-DIHYDRO-5H-BENZO[5,6]CYCLO-HEPTA[1,2-b]PYRIDIN-11-YL) PIPERIDINE] came in with an IC50 of 1.1 µM.
With `NCCCC(=O)N1CCC(C2c3ncc(Br)cc3CCc3cc(Cl)cc(Cl)c32)CC1` (single isomer, unassigned; (+)) [Example 27, (+)-1-(4-AMINO-1-OXOBUTYL)-4-(3-BROMO-8,10-DICHLORO-6,11-DIHYDRO-5H-BENZO[5,6]CYCLO-HEPTA[1,2-b]PYRIDIN-11-YL) PIPERIDINE], half-maximal inhibition (IC50) was put at 0.13 µM.
Still for that read-out and setting: the value for `NC(=O)NCCCC(=O)N1CCC(C2c3ncc(Br)cc3CCc3cc(Cl)cc(Cl)c32)CC1` (single isomer, unassigned; (+)) [Example 31] was 0.058 µM.
With `O=C(CCCN1C(=O)c2ccccc2C1=O)N1CCC(C2c3ncc(Br)cc3CCc3cc(Cl)cc(Br)c32)CC1` (single isomer, unassigned; (+)) [Example 32, (+)-4-(3,10-DIBROMO-8-CHLORO-6,11-DIHYDRO-5H-BENZO[5,6]CYCLO-HEPTA[1,2-b]PYRIDIN-11-YL)-1-[4-(1,3-DIHYDRO-1,3-DIOXO-2H-ISOINDOL-2-YL)-1-OXOBUTYL]PIPERIDINE], the FPT inhibition (@ 88 nM) turned out to be 12%.
As to `O=C(CCCC(=O)N1CCC(C2c3ncc(Br)cc3CCc3cc(Cl)cc(Cl)c32)CC1)Nc1cccnc1` (stereo not shown) [Example 17], the IC50 is around 0.1 µM.
Regarding `O=C(NCCCCC(=O)N1CCC(C2c3ncc(Br)cc3CCc3cc(Cl)cc(Cl)c32)CC1)c1ccccc1` (stereo not shown) [Example 22], the FPT inhibition (@ 0.06 μg/μL) is given as 41%.
In turn, `CC(C)(C)OC(=O)NCCCC(=O)N1CCC(C2c3ncc(Br)cc3CCc3cc(Cl)cc(Cl)c32)CC1` (stereo not shown) [Example 25] returned an FPT inhibition (@ 330 nM) of 47%.
Take `CC(C)(C)OC(=O)NCC(=O)N1CCC(C2c3ncc(Br)cc3CCc3cc(Cl)cc(Cl)c32)CC1` (stereo not shown) [Example 26]: 0.54 µM corresponded to half-maximal inhibition (IC50).
Compound `O=C(CCCN1C(=O)c2ccncc2C1=O)N1CCC(C2c3ncc(Br)cc3CCc3cc(Cl)cc(Cl)c32)CC1` (stereo not shown) [Example 33, 4-(8,10-DICHLORO-3-BROMO-6,11-DIHYDRO-5H-BENZO[5,6]CYCLO-HEPTA[1,2-b]PYRIDIN-11-YL)-1-[4-(1,3-DIHYDRO-1,3-DIOXO-2H-PYRROLO-[3,4c]-PYRIDINE-2-YL)-1-OXOBUTYL]PIPERIDINE] came in with an FPT inhibition (@ 93.4 nM) of 38.7%.
`CCOC(=O)CC(=O)N1CCC([C@H]2c3ncc(Br)cc3CCc3cc(Cl)cc(Br)c32)CC1` [Example 45, (+)-ETHYL 4-(3,10-DIBROMO-8-CHLORO-6,11-DIHYDRO-5H-BENZO[5,6]CYCLO-HEPTA[1,2-b]PYRIDIN-11(R)-YL)-BETA-OXO-1-PIPERIDININE PROPANOATE]: the midpoint of inhibition, the IC50, lay at 0.028 µM.
In the case of `O=C(O)CC(=O)N1CCC([C@H]2c3ncc(Br)cc3CCc3cc(Cl)cc(Br)c32)CC1` [Example 46, (+)-SODIUM 4-(3,10-DIBROMO-8-CHLORO-6,11-DIHYDRO-5H-BENZO[5,6]CYCLO-HEPTA[1,2-b]PYRIDIN-11(R)-YL)-BETA-OXO-1-PIPERIDININE PROPANOATE], it took 0.078 µM to reach half-maximal inhibition (IC50).
